Reference: PubChem BioAssay (NCI)
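Cells were grown in 96-well plates and exposed to each compound for 48 hours at five concentrations; endpoints were interpolated linearly between bracketing concentrations, or set to the highest concentration if not reached. The concentration for full growth arrest is given as TGI.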

Columns and labels:
Assay in all cases: NCI tumour cell line growth inhibition, 48 h
[1] = tested on: UACC-257 melanoma
[2] = tested on: NCI-H522 lung
[3] = tested on: HCT-15 colon
[4] = tested on: SNB-19 CNS
[5] = tested on: LOX IMVI melanoma
[6] = tested on: SW-620 colon
[7] = tested on: HCT-116 colon
[8] = tested on: HT29 colon
[9] = tested on: SK-MEL-2 melanoma
[10] = tested on: OVCAR-8 ovarian
[11] = tested on: EKVX NSCLC
[12] = tested on: UACC-62 melanoma
[13] = tested on: COLO 205 colon
[14] = tested on: PC-3 prostate
[15] = tested on: NCI/ADR-RES ovarian
[16] = tested on: MCF7 breast
[17] = tested on: HS 578T breast
[18] = tested on: MDA-MB-435
[19] = tested on: T-47D breast

| SMILES | TGI [1] | TGI [2] | TGI [3] | TGI [4] | TGI [5] | TGI [6] | TGI [7] | TGI [8] | TGI [9] | TGI [10] | TGI [11] | TGI [12] | TGI [13] | TGI [14] | TGI [15] | TGI [16] | TGI [17] | TGI [18] | TGI [19] |
| --- | --- | --- | --- | --- | --- | --- | --- | --- | --- | --- | --- | --- | --- | --- | --- | --- | --- | --- | --- |
| COc1cc(C2C(Cl)C(=O)N2NC(=O)Cc2ccccc2)ccc1O (stereo not given) | > 100 µM | 56.3 µM | > 100 µM | > 100 µM | > 100 µM | > 100 µM | > 100 µM | > 100 µM | > 100 µM | > 100 µM | > 100 µM | > 100 µM | > 100 µM |  |  |  |  |  |  |
| c1ccc2c3nnc(c2c1)SCCSCCCSCCS3 | > 100 µM | > 100 µM | > 100 µM | 76 µM | > 100 µM | > 100 µM | > 100 µM | > 100 µM | > 100 µM | > 100 µM | > 100 µM | > 100 µM | > 100 µM | > 100 µM | > 100 µM | > 100 µM | > 100 µM | > 100 µM | > 100 µM |
| COCC12CC(CC1=O)C1C2ON2c3ccccc3C(=O)C12c1ccccc1 (stereo not given) | > 100 µM | > 100 µM | > 100 µM | > 100 µM |  | > 100 µM | > 100 µM | > 100 µM |  | > 100 µM | > 100 µM | > 100 µM | > 100 µM |  |  |  |  |  |  |
| O=C(NC/C(Cl)=C/Cl)Nc1cccc2c1CCCC2 | > 100 µM | > 100 µM | > 100 µM | > 100 µM | > 100 µM | > 100 µM | > 100 µM | > 100 µM | > 100 µM | > 100 µM | > 100 µM | > 100 µM | > 100 µM | > 100 µM | > 100 µM | > 100 µM | > 100 µM | > 100 µM | > 100 µM |
| CCOC(=O)CC(N1CC1)N1CC1 | > 10 µM | > 10 µM | > 10 µM | > 10 µM | > 10 µM | > 10 µM | > 10 µM | > 10 µM | > 10 µM |  | > 10 µM | > 10 µM | > 10 µM | > 10 µM | > 10 µM | > 10 µM | > 10 µM | > 10 µM | > 10 µM |
| O=C1/C(=C\c2c(-c3ccccc3)nn(-c3ccccc3)c2O)C(c2ccccc2)=NN1c1ccccc1 | > 100 µM |  | > 100 µM | > 100 µM | > 100 µM | > 100 µM | > 100 µM | > 100 µM | > 100 µM | > 100 µM | > 100 µM | > 100 µM | > 100 µM | > 100 µM | > 100 µM | > 100 µM | > 100 µM | > 100 µM | > 100 µM |
| COC(=O)/C(=C\C(=O)c1ccc(Br)cc1)NN=C(c1ccccc1)c1ccccc1 | > 10 µM |  | > 10 µM |  | > 10 µM | > 10 µM |  | > 10 µM |  | > 10 µM | > 10 µM | > 10 µM | > 10 µM | > 10 µM |  | > 10 µM |  | > 10 µM | > 10 µM |
| CC(C)(C)C(=O)[CH-]C(=O)C(F)(F)C(F)(F)C(F)(F)F.CC(C)(C)C(=O)[CH-]C(=O)C(F)(F)C(F)(F)C(F)(F)F.[O-]CC1OC(O)C(O)C(O)C1O.[O-]CC1OC(O)C(O)C(O)C1O.[Ti+4] | > 100 µM |  | > 100 µM | > 100 µM | > 100 µM | > 100 µM | > 100 µM | > 100 µM | > 100 µM | > 100 µM | > 100 µM | > 100 µM | > 100 µM |  |  |  |  |  |  |
| CCOC(=O)C1CC/C(=C(/C#N)C(=O)OC)N1 (stereo not given) | > 100 µM | > 100 µM | > 100 µM | > 100 µM | > 100 µM | > 100 µM | > 100 µM |  | > 100 µM | > 100 µM | > 100 µM | > 100 µM | > 100 µM |  |  |  |  |  |  |
| O=C(O)Cc1ccc2c(c1O)C(=O)c1c(ccc(CC(=O)O)c1O)C2=O | > 100 µM | > 100 µM | > 100 µM | > 100 µM | > 100 µM | > 100 µM | > 100 µM | > 100 µM | > 100 µM | > 100 µM | > 100 µM |  | > 100 µM |  |  |  |  |  |  |
| O=S(Cc1cc2c(cc1Br)OCO2)c1ccccc1 (stereo not given) | > 100 µM | 56.3 µM | > 100 µM | > 100 µM | 30.7 µM | 29.7 µM | > 100 µM | > 100 µM | > 100 µM | > 100 µM | > 100 µM | > 100 µM | > 100 µM |  |  |  |  |  |  |
| O=C1C=C(Nc2ccccc2C(=O)CC(=O)C(=O)Nc2ccc(Cl)c(Cl)c2)c2ccccc2C1=O | 47.6 µM | 54.5 µM | > 100 µM | > 100 µM |  |  |  | > 100 µM | > 100 µM | > 100 µM |  | 62.2 µM | > 100 µM |  |  |  |  |  |  |
| CCOC(=O)c1cn2c([nH]c3ccccc32)c(C#N)c1=O | > 100 µM | > 100 µM | > 100 µM | > 100 µM | 56.8 µM | 39.5 µM | > 100 µM | > 100 µM | > 100 µM | > 100 µM | > 100 µM | > 100 µM | > 100 µM |  |  |  |  |  |  |
| O=C1C2Nc3ccccc3SC2C(=O)N1c1cccc([N+](=O)[O-])c1 (stereo not given) | > 100 µM | > 100 µM | > 100 µM | > 100 µM | > 100 µM | > 100 µM | > 100 µM | > 100 µM | > 100 µM | > 100 µM | > 100 µM | > 100 µM | > 100 µM |  |  |  |  |  |  |
| Cc1nc(N)sc1C(=O)/C=C/c1ccc([N+](=O)[O-])cc1 | > 100 µM | > 100 µM | > 100 µM | > 100 µM | > 100 µM | > 100 µM |  | > 100 µM | > 100 µM | > 100 µM | > 100 µM | > 100 µM | > 100 µM |  |  |  |  |  |  |
| CCCCCn1cnc2c1S(=O)(=O)N(C)C(NC(=O)c1ccccc1)=N2 | > 100 µM | > 100 µM | > 100 µM | > 100 µM | > 100 µM | > 100 µM | > 100 µM | > 100 µM | > 100 µM | > 100 µM | > 100 µM | > 100 µM | > 100 µM |  |  |  |  |  |  |
